From patent US20130172273A1, “CYCLOTETRAPEPTIDES WITH PRO-ANGIOGENIC PROPERTIES” (GENETADI BIOTECH, S.L., priority 2010, published 2013)

Tests used:
[1] = test system: 17 angiogenic and adhesion-related genes in HUVEC cells; test: Gene regulation assay (whole human gene-expression microarray); assay type: cell-based; details: 10^−5M, 48 hours, FIG. 2
Description: HUVEC cells were maintained in CS—C Complete Medium, grown at 50 percent of confluency and then treated with 1.00E-05 M final concentration of the peptide compounds during 48 hours.
Total RNA was extracted from untreated control or RGD-compounds treated cells using TRIzol (Invitrogen) according to standard protocol. RNA was further purified with RNeasy Mini Kit (Qiagen) and the concentration and quality was assessed by NanoDrop spectrophotometer and Agilent 2100 Bioanalyzer, respectively. Only RNA Samples with a RIN number between […]were used in the microarray assays.
In order to study the intracellular effect of all RGD-binding compounds, a cell-culture whole gene-expression assay was performed. HUVEC cells were treated separately with a 10^−5M concentration of the test compounds during 48 hours. The simultaneous analysis of all human gene-expression by microarray let us identify which human gene(s) are induced, inhibited or un-affected after the test compounds were bound to the receptors of the cells.
Whole human gene expression microarray analysis was performed using Agilent Technologies (Santa Clara, Calif.). This platform comprises a two-color design with two RNA samples labelled with either Cy3 or Cy5 and hybridized to the same 44K Agilent microarray. Each array contains about 41,000 unique noncontrol 60-mer probes. RNAs from untreated and peptide treated-HUVEC cells were two-color labelled and hybridized to randomly chosen arrays a total of four times. A dye swap was performed for each sample on a different slide to remove any bias from the labelling dyes.
For each sample, 800 ng total RNA was reverse transcribed, linear amplified, and labelled with either Cy3 or Cy5 using Agilent's Low RNA Input Linear Amplification Kit PLUS, according to manufacturer's instructions. After labelling, samples were measured on a Nanodrop microarray module for labelling efficiency and quantification. Samples were then hybridized on Agilent 4×44K whole human genome GE arrays at 65° C. for 17 h. After washing in GE washing buffer, the slide was scanned with Agilent Microarray Scanner. Feature extraction software (Version 9.5.3) was used to convert the image into gene expression data. Data were normalized by the Linear Lowess method. Genes that were 1.5-fold differentially expressed on 3 of 4 arrays were scored as significant. Furthermore, only genes with a p-value≦0.05 based on a Student's t-test were selected. Mean fold change is mean of 4 arrays. Angiogenic-related genes were classified according to Gene Ontology.

[2] = molecular target: αvβ3 integrin (Homo sapiens, UniProt P05106+P06756); details: J. Med. Chem. 2010, vol. 53(1), pp. 106-118; cited from earlier work
[3] = test system: αvβ3 integrin over-expressed human umbilical vein endothelial cells (HUVEC); test: Endothelial cell adhesion assay (adhesion inhibition on a vitronectin surface); assay type: cell-based; details: HUVEC on vitronectin-coated plate, 1 h at 37° C.; FIG. 1
Description: Human umbilical endothelial cell (HUVEC) was purchased from Cambrex BioScience (USA). Cells were grown on the 0.5% gelatin coated plate in CS—C Complete Medium (Sigma) and were used for experiments after three passages. DLD-1, human colon cancer cell line was purchased from LGC/ATCC (Cat. Number CCL-221), and maintained in RPMI 1640 (Sigma) supplemented with 10% FBS (Sigma). Human vitronectin was from Sigma. Peptides to be assayed were dissolved in double-distilled water at a concentration of 10 mg/ml and stored in the dark at −80°.
HUVEC cells were grown to subconfluent state and then harvested by 0.025% trypsin/EDTA (Sigma) in one minute. Cells were preincubated with various concentrations of peptides on ice for 15 min in CS—C Medium. Same volume of vehicle was added to cells as a control. Peptide-treated cells (5×10^4 cells/100 μl/well) were plated onto a 96-well microplate which was precoated with vitronectin ([…] in PBS), and incubated for 1 h at 37° C., 5% CO^2/95% air to allow cell attachment. Cells were washed gently with PBS for three times to remove detached cells. Number of adherent cells was measured by Fluorescent Cell counting Kit (FCCK) at 535 nm (excitation at 485 nm) using a fluorescent plate reader (Bioscan). […]
Data are expressed as the means±standard error of mean (SEM). Statistical differences among treatment groups were assessed by analysis of variance (ANOVA). […]

[4] = of 17 angiogenic and adhesion-related genes

Chain of αvβ3 integrin (P06756 31-889 limits assumed): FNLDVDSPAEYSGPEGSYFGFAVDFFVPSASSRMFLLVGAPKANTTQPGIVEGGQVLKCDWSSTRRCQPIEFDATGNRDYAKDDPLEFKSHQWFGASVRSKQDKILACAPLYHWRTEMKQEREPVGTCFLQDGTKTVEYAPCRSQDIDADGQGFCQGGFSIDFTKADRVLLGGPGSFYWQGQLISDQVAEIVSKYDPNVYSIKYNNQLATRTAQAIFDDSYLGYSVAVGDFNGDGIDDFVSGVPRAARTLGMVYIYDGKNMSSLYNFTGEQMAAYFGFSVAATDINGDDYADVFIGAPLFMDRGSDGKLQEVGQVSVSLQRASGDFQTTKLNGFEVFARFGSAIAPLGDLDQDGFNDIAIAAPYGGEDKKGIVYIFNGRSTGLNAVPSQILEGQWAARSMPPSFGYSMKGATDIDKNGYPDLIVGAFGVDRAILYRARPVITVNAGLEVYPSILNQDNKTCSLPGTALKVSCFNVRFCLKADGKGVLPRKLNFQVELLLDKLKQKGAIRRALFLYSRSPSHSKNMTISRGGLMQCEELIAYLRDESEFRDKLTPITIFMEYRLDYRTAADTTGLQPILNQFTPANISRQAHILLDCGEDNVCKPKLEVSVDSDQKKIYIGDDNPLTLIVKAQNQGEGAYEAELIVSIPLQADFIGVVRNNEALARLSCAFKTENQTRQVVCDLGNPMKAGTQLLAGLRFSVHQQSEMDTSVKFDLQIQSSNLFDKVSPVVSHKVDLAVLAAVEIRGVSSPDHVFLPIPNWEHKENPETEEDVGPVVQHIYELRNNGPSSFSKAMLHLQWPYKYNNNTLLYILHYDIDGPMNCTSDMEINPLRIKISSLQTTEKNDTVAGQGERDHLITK
Chain of αvβ3 integrin (P06756 891-1048 limits assumed): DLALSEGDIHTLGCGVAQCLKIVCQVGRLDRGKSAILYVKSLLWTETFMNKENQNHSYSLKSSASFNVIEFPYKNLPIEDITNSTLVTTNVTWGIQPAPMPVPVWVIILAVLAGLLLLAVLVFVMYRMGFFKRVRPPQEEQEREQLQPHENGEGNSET
Chain of αvβ3 integrin (P05106 27-788): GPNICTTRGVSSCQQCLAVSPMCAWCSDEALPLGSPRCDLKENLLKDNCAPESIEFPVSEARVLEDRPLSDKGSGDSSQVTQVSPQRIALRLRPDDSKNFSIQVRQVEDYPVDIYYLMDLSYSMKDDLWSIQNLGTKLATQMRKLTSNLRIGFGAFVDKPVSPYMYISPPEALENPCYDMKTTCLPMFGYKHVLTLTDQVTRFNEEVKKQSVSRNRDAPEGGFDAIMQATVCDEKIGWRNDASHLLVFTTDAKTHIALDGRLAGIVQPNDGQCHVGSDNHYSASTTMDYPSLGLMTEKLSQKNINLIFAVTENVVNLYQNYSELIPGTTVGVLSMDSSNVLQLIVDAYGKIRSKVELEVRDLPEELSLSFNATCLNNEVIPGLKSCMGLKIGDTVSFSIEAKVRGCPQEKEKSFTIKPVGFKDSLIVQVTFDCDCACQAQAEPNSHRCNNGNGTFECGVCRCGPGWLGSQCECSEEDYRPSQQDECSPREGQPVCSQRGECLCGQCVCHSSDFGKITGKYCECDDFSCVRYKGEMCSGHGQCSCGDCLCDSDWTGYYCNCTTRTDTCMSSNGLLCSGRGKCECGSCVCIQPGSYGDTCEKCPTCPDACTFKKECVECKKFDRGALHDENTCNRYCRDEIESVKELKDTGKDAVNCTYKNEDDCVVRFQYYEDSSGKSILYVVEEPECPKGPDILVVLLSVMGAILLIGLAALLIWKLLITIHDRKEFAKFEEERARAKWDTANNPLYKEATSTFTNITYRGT

In the case of `CC(C)[C@H]1C(=O)N[C@@H](CCCN=C(N)N)C(=O)NCC(=O)N[C@@H](CC(=O)O)C(=O)N[C@H](Cc2ccccc2)C(=O)N1C` [cilengitide, cyclo(Arg-Gly-Asp-(D)Phe-N(Me)Val)], the “genes activated after treatment” value [1, 4] is reported as 10 genes and the “genes blocked after treatment” value [1, 4] is reported as 7 genes.

With `N=C(N)NCCC[C@@H]1NC(=O)CN2C(=O)C(NC(=O)[C@H](CC(=O)O)NC(=O)CNC1=O)[C@H]2[C@H](O)CO` (stereo partly shown) [compound 1] the “pattern of gene-expression conserved relative to cilengitide” value ([1]; of 17 genes) was 15/17.

In the case of `CC1(C)C(=O)N[C@@H](CCCNC(=N)N)C(=O)NCC(=O)N[C@@H](CC(=O)O)C(=O)NC2(Cc3ccccc3)CN1C2=O` (stereo partly shown) [compound 2], the “pattern of gene-expression conserved relative to cilengitide” value ([1]; of 17 genes) is reported as 14 of 17.

For c[(R)-βPheψ(NHCO)Aspψ(NHCO)Gly-Arg], the “inhibiting the αvβ3 integrin-mediated cell adhesion” value [2] is given as “good activity”.

In the case of “cyclo-[Asp-(beta-Lactam)-Arg [Example 24]”, the “pattern of gene-expression almost opposite (activation vs inhibition) compared with cilengitide” value ([1]; of 17 genes) is reported as 15 of 17 and the “adhesion inhibition (% of cell adhesion vs. concentration)” value [3] is reported as “comparable adhesion inhibition as cilengitide and the RGD-cyclopentapeptides”.
